Laboratory results published in patent publication US10844032B2, “Substituted benzofuran, benzothiophene and indole Mcl-1 inhibitors” (Vanderbilt University, priority 2012, dated 2020).

Biological target: recombinant Mcl-1 (residues 172-327) (Homo sapiens (Human), UniProt Q07820)
Assay: Bak peptide fluorescence polarization anisotropy competition assay, Mcl-1
Assay type: binding
Conditions: Table 2, Ki range; FITC-Bak peptide 10 nM, Mcl-1 14 nM; read-out: Ki for inhibition of Mcl-1

Chain of recombinant Mcl-1 (residues 172-327) (Q07820 172-327): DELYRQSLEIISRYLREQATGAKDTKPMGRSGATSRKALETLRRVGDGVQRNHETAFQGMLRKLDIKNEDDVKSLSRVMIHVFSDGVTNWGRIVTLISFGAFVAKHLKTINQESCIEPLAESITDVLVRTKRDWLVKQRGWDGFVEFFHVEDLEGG

Ki | SMILES
≤ 100 nM | Cc1cc(OCCCc2c(C(=O)NS(=O)(=O)c3ccccc3)[nH]c3c(-c4ccnn4C(C)C)cccc23)cc(C)c1Cl [Example 304, 3-(3-(4-chloro-3,5-dimethylphenoxy)propyl)-7-(1-isopropyl-1H-pyrazol-5-yl)-N-(phenylsulfonyl)-1H-indole-2-carboxamide]
≤ 100 nM | COc1nccc(C)c1-c1cccc2c(CCCOc3cc(C)c(Cl)c(C)c3)c(C(=O)NS(=O)(=O)c3ccccc3)[nH]c12 [Example 301, 3-(3-(4-chloro-3,5-dimethylphenoxy)propyl)-7-(2-methoxy-4-methylpyridin-3-yl)-N-(phenylsulfonyl)-1H-indole-2-carboxamide]
≤ 100 nM | Cc1cc(OCCCc2c(C(=O)NS(=O)(=O)CCNC(=O)CCc3ccccc3)[nH]c3cc(Cl)ccc23)cc(C)c1Cl [Example 230, 6-chloro-3-(3-(4-chloro-3,5-dimethylphenoxy)propyl)-N-((2-(3-phenylpropanamido)ethyl)sulfonyl)-1H-indole-2-carboxamide]
≤ 100 nM | Cc1cc(OCCCc2c(C(=O)NS(=O)(=O)c3ccccc3)[nH]c3c(-c4c(COCCN(C)C)nn(C)c4C)cccc23)cc(C)c1Cl [Example 308, 3-(3-(4-chloro-3,5-dimethylphenoxy)propyl)-7-(3-((2-(dimethylamino)ethoxy)methyl)-1,5-dimethyl-1H-pyrazol-4-yl)-N-(phenylsulfonyl)-1H-indole-2-carboxamide]
≤ 100 nM | Cc1cc(OCCCc2c(C(=O)NS(=O)(=O)c3ccc(C(=O)O)o3)[nH]c3cc(Cl)ccc23)cc(C)c1Cl [Example 261]
≤ 100 nM | Cc1cc(OCCCc2c(C(=O)NS(=O)(=O)c3ccc(C(=O)O)n3C)[nH]c3cc(Cl)ccc23)cc(C)c1Cl [Example 266, 5-(N-(6-chloro-3-(3-(4-chloro-3,5-dimethylphenoxy)propyl)-1H-indole-2-carbonyl)sulfamoyl)-1-methyl-1H-pyrrole-2-carboxylic acid]

Further lines, the compound ahead of its results:

SMILES | Ki
Cc1ccncc1-c1cccc2c(CCCOc3cc(C)c(Cl)c(C)c3)c(C(=O)NS(=O)(=O)c3ccccc3)[nH]c12 [Example 89, 3-(3-(4-chloro-3,5-dimethylphenoxy)propyl)-7-(4-methylpyridin-3-yl)-N-(phenylsulfonyl)-1H-indole-2-carboxamide] | ≤ 100 nM
CC(=O)N1CCN(c2ccc(OCc3nn(C)c(C)c3-c3cccc4c(CCCOc5cc(C)c(Cl)c(C)c5)c(C(=O)NS(=O)(=O)c5ccccc5)n(Cc5cccnc5)c34)cc2)CC1 [Example 124, 7-(3-((4-(4-acetylpiperazin-1-yl)phenoxy)methyl)-1,5-dimethyl-1H-pyrazol-4-yl)-3-(3-(4-chloro-3,5-dimethylphenoxy)propyl)-N-(phenylsulfonyl)-1-(pyridin-3-ylmethyl)-1H-indole-2-carboxamide] | ≤ 100 nM

Same assay, conditions: read-out: Ki for inhibition of Mcl-1

Ki | SMILES
101 to 299 nM | COC(=O)c1ccc(S(=O)(=O)NC(=O)c2[nH]c3cc(Cl)ccc3c2CCCOc2cc(C)c(Cl)c(C)c2)o1 [Example 259]
101 to 299 nM | Cc1cc(OCCCc2c(C(=O)NS(=O)(=O)CCNC(=O)c3ccc4c(ccn4C)c3)[nH]c3cc(Cl)ccc23)cc(C)c1Cl [Example 236, 6-chloro-3-(3-(4-chloro-3,5-dimethylphenoxy)propyl)-N-((2-(1-methyl-1H-indole-5-carboxamido)ethyl)sulfonyl)-1H-indole-2-carboxamide]
301 to 500 nM | Cc1cc(OCCCc2c(C(=O)NS(=O)(=O)CCNC(=O)c3cccc(Oc4ccccc4)c3)n(Cc3cccnc3)c3cc(Cl)ccc23)cc(C)c1Cl [Example 276, 6-chloro-3-(3-(4-chloro-3,5-dimethylphenoxy)propyl)-N-((2-(3-phenoxybenzamido)ethyl)sulfonyl)-1-(pyridin-3-ylmethyl)-1H-indole-2-carboxamide]
501 to 999 nM | Cc1cc(OCCCc2c(C(=O)NS(C)(=O)=O)n(C)c3cc(Cl)ccc23)cc(C)c1Cl [Example 268, 6-chloro-3-(3-(4-chloro-3,5-dimethylphenoxy)propyl)-1-methyl-N-(methylsulfonyl)-1H-indole-2-carboxamide]
301 to 500 nM | Cc1cc(OCCCc2c(C(=O)NS(=O)(=O)c3ccc(OCc4ccccc4)cc3)n(C)c3cc(Cl)ccc23)cc(C)c1Cl [Example 270, N-((4-(benzyloxy)phenyl)sulfonyl)-6-chloro-3-(3-(4-chloro-3,5-dimethylphenoxy)propyl)-1-methyl-1H-indole-2-carboxamide]
101 to 299 nM | Cc1cc(OCCCc2c(C(=O)NS(=O)(=O)CCNC(=O)C(F)(F)F)[nH]c3cc(Cl)ccc23)cc(C)c1Cl [Example 254, 6-chloro-3-(3-(4-chloro-3,5-dimethylphenoxy)propyl)-N-((2-(2,2,2-trifluoroacetamido)ethyl)sulfonyl)-1H-indole-2-carboxamide]

The next lines start with the compound.

SMILES | Ki
Cc1cc(OCCCc2c(C(=O)NS(=O)(=O)CCNS(=O)(=O)c3ccccc3)[nH]c3ccccc23)cc(C)c1Cl [Example 146, 3-(3-(4-chloro-3,5-dimethylphenoxy)propyl)-N-((2-(phenylsulfonamido)ethyl)sulfonyl)-1H-indole-2-carboxamide] | 101 to 299 nM
Cc1cc(OCCCc2c(C(=O)NS(=O)(=O)c3ccccc3)[nH]c3c(-c4cccs4)cccc23)cc(C)c1Cl [Example 95, 3-(3-(4-chloro-3,5-dimethylphenoxy)propyl)-N-(phenylsulfonyl)-7-(thiophen-2-yl)-1H-indole-2-carboxamide] | 101 to 299 nM
Cc1cc(OCCCc2c(C(=O)NS(=O)(=O)CCNC(=O)c3ccc4ccccc4c3)[nH]c3ccccc23)cc(C)c1Cl [Example 162, N-((2-(2-naphthamido)ethyl)sulfonyl)-3-(3-(4-chloro-3,5-dimethylphenoxy)propyl)-1H-indole-2-carboxamide] | 301 to 500 nM
Cc1ccoc1C(=O)NCCS(=O)(=O)NC(=O)c1[nH]c2ccccc2c1CCCOc1cc(C)c(Cl)c(C)c1 [Example 156] | 501 to 999 nM
Cc1cc(OCCCc2c(C(=O)NS(=O)(=O)CCNC(=O)c3ccoc3C)[nH]c3ccccc23)cc(C)c1Cl [Example 151, 3-(3-(4-chloro-3,5-dimethylphenoxy)propyl)-N-((2-(2-methylfuran-3-carboxamido)ethyl)sulfonyl)-1H-indole-2-carboxamide] | 101 to 299 nM
CCOc1ccc(Oc2ccc(S(=O)(=O)NC(=O)c3[nH]c4ccccc4c3CCCOc3cc(C)c(Cl)c(C)c3)cc2)cc1 [Example 143, 3-(3-(4-chloro-3,5-dimethylphenoxy)propyl)-N-((4-(4-ethoxyphenoxy)phenyl)sulfonyl)-1H-indole-2-carboxamide] | 301 to 500 nM
Cc1cc(OCCCc2c(C(=O)NS(=O)(=O)c3ccc(OCc4ccccc4)cc3)[nH]c3ccccc23)cc(C)c1Cl [Example 136, N-((4-(benzyloxy)phenyl)sulfonyl)-3-(3-(4-chloro-3,5-dimethylphenoxy)propyl)-1H-indole-2-carboxamide] | 101 to 299 nM
CS(=O)(=O)NC(=O)c1[nH]c2ccccc2c1CCCOc1ccccc1 [Example 30, N-(methylsulfonyl)-3-(3-phenoxypropyl)-1H-indole-2-carboxamide] | 10000 to 50000 nM
Cc1cc(OCCCc2c(C(=O)NS(=O)(=O)c3ccc(-c4ccccc4)cc3)[nH]c3cc(Cl)ccc23)cc(C)c1Cl [Example 219, N-([1,1′-biphenyl]-4-ylsulfonyl)-6-chloro-3-(3-(4-chloro-3,5-dimethylphenoxy)propyl)-1H-indole-2-carboxamide] | 301 to 500 nM
CS(=O)(=O)NC(=O)c1[nH]c2ccccc2c1CCCOc1ccc(Cl)cc1 [Example 35, 3-(3-(4-chlorophenoxy)propyl)-N-(methylsulfonyl)-1H-indole-2-carboxamide] | 10000 to 50000 nM
Cc1cc(OCCCc2c(C(=O)NS(C)(=O)=O)[nH]c3c(C)c(Br)ccc23)cc(C)c1Cl [Example 120, 6-bromo-3-(3-(4-chloro-3,5-dimethylphenoxy)propyl)-7-methyl-N-(methylsulfonyl)-1H-indole-2-carboxamide] | 1000 to 9990 nM
Cc1cc(OCCCc2c(C(=O)NS(=O)(=O)CCNC(=O)Cc3c[nH]c4ccccc34)[nH]c3ccccc23)cc(C)c1Cl [Example 177, N-((2-(2-(1H-indol-3-yl)acetamido)ethyl)sulfonyl)-3-(3-(4-chloro-3,5-dimethylphenoxy)propyl)-1H-indole-2-carboxamide] | 101 to 299 nM
Cc1cc(OCCCc2c(C(=O)NS(=O)(=O)CCNC(=O)c3c[nH]cn3)[nH]c3ccccc23)cc(C)c1Cl [Example 186, N-((2-(1H-imidazole-4-carboxamido)ethyl)sulfonyl)-3-(3-(4-chloro-3,5-dimethylphenoxy)propyl)-1H-indole-2-carboxamide] | 1000 to 9990 nM
Cc1cc(OCCCc2c(C(=O)NS(C)(=O)=O)[nH]c3ccc(Cl)cc23)cc(C)c1Cl [Example 110, 5-chloro-3-(3-(4-chloro-3,5-dimethylphenoxy)propyl)-N-(methylsulfonyl)-1H-indole-2-carboxamide] | 501 to 999 nM
Cc1cc(OCCCc2c(C(=O)NS(C)(=O)=O)[nH]c3cc(Cl)ccc23)ccc1Cl [Example 53, 6-chloro-3-(3-(4-chloro-3-methylphenoxy)propyl)-N-(methylsulfonyl)-1H-indole-2-carboxamide] | 301 to 500 nM
CS(=O)(=O)NC(=O)c1[nH]c2cc(Cl)ccc2c1CCCOc1cccc2c1CCCC2 [Example 75, 6-chloro-N-(methylsulfonyl)-3-(3-((5,6,7,8-tetrahydronaphthalen-1-yl)oxy)propyl)-1H-indole-2-carboxamide] | 501 to 999 nM
Cc1cc(OCCCc2c(C(=O)NS(=O)(=O)CCNC(=O)c3ccc4[nH]ccc4c3)[nH]c3ccccc23)cc(C)c1Cl [Example 178, N-((2-(1H-indole-5-carboxamido)ethyl)sulfonyl)-3-(3-(4-chloro-3,5-dimethylphenoxy)propyl)-1H-indole-2-carboxamide] | 101 to 299 nM
Cc1ccc2c(CCCOc3cc(C)c(Cl)c(C)c3)c(C(=O)NS(C)(=O)=O)[nH]c2c1 [Example 117, 3-(3-(4-chloro-3,5-dimethylphenoxy)propyl)-6-methyl-N-(methylsulfonyl)-1H-indole-2-carboxamide] | 301 to 500 nM
Cc1cc(OCCCc2c(C(=O)NS(=O)(=O)c3ccncc3)[nH]c3ccccc23)cc(C)c1Cl [Example 134, 3-(3-(4-chloro-3,5-dimethylphenoxy)propyl)-N-(pyridin-4-ylsulfonyl)-1H-indole-2-carboxamide] | 301 to 500 nM
